# Activity calls are given as the source filed them.
# What was measured:
# HEK293 [1] = assay: cells; assay type: functional, cell-based; details: Homo sapiens
# HEK293 [2] = assay: cells; assay type: functional, cell-based; details: Homo sapiens; remark: listed apart in the source
# HEK293 [3] = assay: cells; assay type: functional, cell-based; details: Homo sapiens; remark: listed apart in the source
# [4] = MC4R antagonists, dose response, counter-screen for LGR2 antagonist project, cell-based, plate reader, cherry pick (AID 743444); assay type: functional;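 also: transfected HEK 293 cells stimulated with alpha-MSH peptide; potency of inhibitors of the alpha-MSH evoked signal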
# [5] = target: T1, Heat shock factor protein 1 (Mus musculus, UniProt P38532); assay: inhibition of MG132-induced HSE-luciferase signal, confirmation, cell-based, NIH3T3, luminescence, dose retest (AID 2382); assay type: functional;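 also: NIH3T3 fibroblasts with HSF1-driven luciferase reporter stressed by proteasome inhibitor MG132; luminescence from HSF1-driven luciferase expression after 8 hours of MG132 stress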
# T1 sequence (P38532 whole entry): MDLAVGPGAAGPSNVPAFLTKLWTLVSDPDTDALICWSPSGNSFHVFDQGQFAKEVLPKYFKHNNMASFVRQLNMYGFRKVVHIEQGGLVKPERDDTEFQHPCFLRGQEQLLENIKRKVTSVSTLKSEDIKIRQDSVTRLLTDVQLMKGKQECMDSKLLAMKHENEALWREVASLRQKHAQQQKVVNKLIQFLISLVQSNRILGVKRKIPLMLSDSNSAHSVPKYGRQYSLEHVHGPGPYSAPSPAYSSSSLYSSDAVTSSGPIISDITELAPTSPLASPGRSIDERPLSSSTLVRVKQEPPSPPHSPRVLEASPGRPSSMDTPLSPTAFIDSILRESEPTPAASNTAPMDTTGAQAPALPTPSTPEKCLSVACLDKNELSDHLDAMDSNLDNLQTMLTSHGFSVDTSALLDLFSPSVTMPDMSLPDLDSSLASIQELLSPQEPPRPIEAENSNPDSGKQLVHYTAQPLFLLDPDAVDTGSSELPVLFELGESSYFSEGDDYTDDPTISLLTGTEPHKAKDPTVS
# [6] = target: Luciferin 4-monooxygenase (Photuris pensylvanica, UniProt Q27757); assay: firefly luciferase enzyme inhibitors, dose response, counter-screen for HSF-1 reporter inhibitor project, biochemical, Cell Titer Glo, luminescence, cherry-picks (AID 588847)
# HEK293 [7] = assay: NOD1 signaling inhibitors, primary screen, cell-based, luminescence, uHTS (AID 1578); assay type: functional; details: Homo sapiens
# [8] = HEK293 cell cytotoxicity, dose response, cytotoxicity control, plate reader, cherry-picked samples (AID 743446); assay type: functional, cell-based
# HEK293 [9] = assay: NOD2 signaling inhibitors in MDP-stimulated cells, cell-based, uHTS, luminescence (AID 2001); assay type: functional; details: Homo sapiens
# [10] = LGR2 antagonists, dose response, cell-based, HEK293, CRE-luciferase reporter, cherry pick, set 2 (AID 743343); assay type: functional;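 also: transfected cells were stimulated with diluted bursicon conditioned medium after compound addition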
# [11] = target: Nucleotide-binding oligomerization domain-containing protein 2 (Homo sapiens, UniProt Q9HC29); assay: NOD2 signaling inhibitors, cell-based, luminescence, uHTS, HEK293 (AID 1566); assay type: functional
# HEK293 [12] = assay: SAR Analysis of small molecule inhibitors of B-cell specific antigen receptor-induced NF-kB activation in a HEK-293T cell line using a luminescence assay - Set 2. [Related pubchem assays (depositor defined):AID435022, AID435025, AID489021]; assay type: functional, cell-based; details: Homo sapiens
# HEK293 [13] = assay: cytotoxicity in HEK293T NF-kB-Luc cells, SAR follow-up, cytotoxicity control for NF-kB activator project, cell-based, resazurin fluorescence (AID 493251); assay type: functional; details: Homo sapiens
# Jurkat = assay: SAR Analysis of small molecule inhibitors of […] specific antigen receptor-induced NF-kB activation in a Jurkat cell line using a luminescence assay - Set 3. [Related pubchem assays (depositor defined):AID435022, AID435025, AID465]; assay type: functional, cell-based; details: Homo sapiens
# [14] = target: T2, Rac GTPase-activating protein 1 (Homo sapiens, UniProt Q9H0H5); assay: MgcRacGAP GTPase-activating activity inhibitors, confirmation, biochemical, ADP Hunter fluorescence, primary and confirmatory (AID 624330); assay type: functional
# T2 sequence (Q9H0H5 whole entry): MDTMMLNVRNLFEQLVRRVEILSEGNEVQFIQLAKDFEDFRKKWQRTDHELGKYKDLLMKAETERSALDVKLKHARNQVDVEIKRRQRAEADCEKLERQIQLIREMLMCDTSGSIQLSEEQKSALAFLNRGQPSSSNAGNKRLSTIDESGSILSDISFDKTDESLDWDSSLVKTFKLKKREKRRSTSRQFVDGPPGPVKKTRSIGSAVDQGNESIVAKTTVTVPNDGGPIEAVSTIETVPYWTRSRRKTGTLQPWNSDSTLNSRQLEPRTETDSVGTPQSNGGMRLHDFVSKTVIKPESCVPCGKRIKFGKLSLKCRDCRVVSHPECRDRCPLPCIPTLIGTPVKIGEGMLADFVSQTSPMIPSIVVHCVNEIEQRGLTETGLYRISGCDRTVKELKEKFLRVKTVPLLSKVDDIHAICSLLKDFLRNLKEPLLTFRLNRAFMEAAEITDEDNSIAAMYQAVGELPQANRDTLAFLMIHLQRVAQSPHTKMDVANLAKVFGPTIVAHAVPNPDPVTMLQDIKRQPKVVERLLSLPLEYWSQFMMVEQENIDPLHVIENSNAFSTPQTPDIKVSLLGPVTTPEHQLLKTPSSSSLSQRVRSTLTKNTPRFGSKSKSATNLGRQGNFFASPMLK
# [15] = HeLa cell cytotoxicity, dose response, cytotoxicity control for MgcRacGAP inhibitor project (AID 624300); assay type: functional
# [16] = target: T3, Microphthalmia-associated transcription factor (Homo sapiens, UniProt O75030); assay: TRPM1 promoter luciferase signal decrease, dose response, MITF inhibitor project, cell-based, SK-MEL-5, cherry-picked, set 3 (AID 493073); assay type: functional
# T3 sequence (O75030 whole entry): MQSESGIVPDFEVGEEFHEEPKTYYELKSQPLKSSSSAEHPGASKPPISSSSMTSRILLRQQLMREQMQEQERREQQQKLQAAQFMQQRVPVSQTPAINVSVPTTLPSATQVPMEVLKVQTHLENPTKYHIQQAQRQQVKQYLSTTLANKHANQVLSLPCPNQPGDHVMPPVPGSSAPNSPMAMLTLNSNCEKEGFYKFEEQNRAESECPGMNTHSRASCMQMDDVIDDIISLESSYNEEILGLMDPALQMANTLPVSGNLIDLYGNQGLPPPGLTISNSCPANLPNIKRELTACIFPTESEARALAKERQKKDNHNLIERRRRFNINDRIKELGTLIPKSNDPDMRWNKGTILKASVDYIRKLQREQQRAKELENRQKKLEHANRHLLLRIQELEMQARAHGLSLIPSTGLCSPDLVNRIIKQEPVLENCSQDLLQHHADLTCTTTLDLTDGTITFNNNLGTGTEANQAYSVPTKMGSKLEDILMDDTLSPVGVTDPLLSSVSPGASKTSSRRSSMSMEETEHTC
# A-375 = assay: A375 melanoma cell viability reduction, dose response, counter-screen for MITF modulator project, cherry-pick samples, set 2 (AID 540335); assay type: functional, cell-based; details: Homo sapiens
# Hexokinase HKDC1 = target: T4, Hexokinase HKDC1 (Homo sapiens, UniProt Q2TB90); assay: SAR analysis of small molecule inhibitors of hexokinase domain containing I (HKDC1). [Related pubchem assays (depositor defined):AID493160, AID493190]; assay type: functional
# T4 sequence (Q2TB90 whole entry): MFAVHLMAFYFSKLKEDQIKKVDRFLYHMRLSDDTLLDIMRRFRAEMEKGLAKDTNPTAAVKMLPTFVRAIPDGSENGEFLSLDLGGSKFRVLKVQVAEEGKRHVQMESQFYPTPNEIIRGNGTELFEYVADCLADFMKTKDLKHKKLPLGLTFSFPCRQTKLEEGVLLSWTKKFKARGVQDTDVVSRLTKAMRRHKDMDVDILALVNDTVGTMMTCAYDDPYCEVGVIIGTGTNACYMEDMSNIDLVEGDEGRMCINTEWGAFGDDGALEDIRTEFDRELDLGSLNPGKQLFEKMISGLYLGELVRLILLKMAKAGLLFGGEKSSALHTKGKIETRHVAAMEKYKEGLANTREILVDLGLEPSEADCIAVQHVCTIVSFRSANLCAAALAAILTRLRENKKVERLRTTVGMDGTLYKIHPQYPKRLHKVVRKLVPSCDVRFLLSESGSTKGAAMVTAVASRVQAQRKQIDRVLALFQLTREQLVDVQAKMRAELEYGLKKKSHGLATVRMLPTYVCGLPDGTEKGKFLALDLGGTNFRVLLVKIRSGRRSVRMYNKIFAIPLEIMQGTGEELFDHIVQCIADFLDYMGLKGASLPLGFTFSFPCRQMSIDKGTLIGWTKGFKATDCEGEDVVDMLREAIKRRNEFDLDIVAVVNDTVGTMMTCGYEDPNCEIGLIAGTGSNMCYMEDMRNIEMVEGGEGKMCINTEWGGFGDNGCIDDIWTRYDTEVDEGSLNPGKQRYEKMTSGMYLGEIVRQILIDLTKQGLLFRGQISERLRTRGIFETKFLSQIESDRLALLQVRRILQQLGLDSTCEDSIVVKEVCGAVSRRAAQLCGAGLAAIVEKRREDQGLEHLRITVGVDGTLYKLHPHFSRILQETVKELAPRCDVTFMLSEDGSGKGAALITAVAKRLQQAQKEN
# Hexokinase-1 = target: T5, Hexokinase-1 (Homo sapiens, UniProt P19367); assay: SAR analysis of small molecule inhibitors of hexokinase domain containing I (HKDC1) in the hexokinase 1 selectivity assay. [Related pubchem assays (depositor defined):AID493160, AID493190]; assay type: functional
# T5 sequence (P19367 whole entry): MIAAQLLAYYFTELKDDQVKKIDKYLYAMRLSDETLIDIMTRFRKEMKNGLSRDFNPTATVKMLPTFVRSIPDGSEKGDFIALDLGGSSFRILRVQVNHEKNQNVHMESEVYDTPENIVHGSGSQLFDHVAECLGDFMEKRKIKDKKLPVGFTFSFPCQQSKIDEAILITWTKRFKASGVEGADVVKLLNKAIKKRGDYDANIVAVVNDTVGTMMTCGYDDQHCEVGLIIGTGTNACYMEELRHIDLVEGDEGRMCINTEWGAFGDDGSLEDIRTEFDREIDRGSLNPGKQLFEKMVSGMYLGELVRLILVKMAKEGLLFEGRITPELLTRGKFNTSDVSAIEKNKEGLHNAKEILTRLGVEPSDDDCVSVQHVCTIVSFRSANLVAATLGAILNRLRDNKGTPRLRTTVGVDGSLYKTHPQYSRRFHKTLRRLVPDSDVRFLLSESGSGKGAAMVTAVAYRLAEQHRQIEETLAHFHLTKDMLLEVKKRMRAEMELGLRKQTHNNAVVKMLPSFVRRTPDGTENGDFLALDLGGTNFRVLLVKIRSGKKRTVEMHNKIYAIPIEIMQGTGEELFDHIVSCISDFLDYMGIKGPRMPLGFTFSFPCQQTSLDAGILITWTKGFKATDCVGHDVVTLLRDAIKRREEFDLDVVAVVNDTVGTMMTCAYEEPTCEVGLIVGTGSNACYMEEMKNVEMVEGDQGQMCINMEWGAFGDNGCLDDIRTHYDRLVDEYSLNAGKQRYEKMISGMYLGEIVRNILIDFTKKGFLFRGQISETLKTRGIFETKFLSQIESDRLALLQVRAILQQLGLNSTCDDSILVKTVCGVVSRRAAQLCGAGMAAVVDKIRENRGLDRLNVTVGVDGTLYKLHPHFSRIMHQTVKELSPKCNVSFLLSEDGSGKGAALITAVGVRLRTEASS
# [17] = ADAM10 inhibitors, peptide cleavage, dose response, biochemical, QFRET (AID 743254);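 also: ADAM10 enzyme with the DM2 quenched FRET peptide as substrate; EDANS fluorescence gain as the protease cuts the substrate; inhibitor potency against ADAM10 proteolytic activity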
# DNA topoisomerase = DNA topoisomerase (Yersinia pestis, UniProt A0A2S9PM60); assay: Y. pestis Topo-I inhibitors, cleavage product readout, dose response, biochemical, cherry-pick (AID 588525)
# [18] = target: Disintegrin and metalloproteinase domain-containing protein 17 (Homo sapiens, UniProt P78536); assay: ADAM17 protease inhibitors, dose response, counter-screen for ADAM10 exosite inhibitor project, biochemical, quenched FRET substrate (AID 743253)
# Disintegrin and metalloproteinase domain-containing protein 17, sequence (P78536 whole entry, the tested form may be a part): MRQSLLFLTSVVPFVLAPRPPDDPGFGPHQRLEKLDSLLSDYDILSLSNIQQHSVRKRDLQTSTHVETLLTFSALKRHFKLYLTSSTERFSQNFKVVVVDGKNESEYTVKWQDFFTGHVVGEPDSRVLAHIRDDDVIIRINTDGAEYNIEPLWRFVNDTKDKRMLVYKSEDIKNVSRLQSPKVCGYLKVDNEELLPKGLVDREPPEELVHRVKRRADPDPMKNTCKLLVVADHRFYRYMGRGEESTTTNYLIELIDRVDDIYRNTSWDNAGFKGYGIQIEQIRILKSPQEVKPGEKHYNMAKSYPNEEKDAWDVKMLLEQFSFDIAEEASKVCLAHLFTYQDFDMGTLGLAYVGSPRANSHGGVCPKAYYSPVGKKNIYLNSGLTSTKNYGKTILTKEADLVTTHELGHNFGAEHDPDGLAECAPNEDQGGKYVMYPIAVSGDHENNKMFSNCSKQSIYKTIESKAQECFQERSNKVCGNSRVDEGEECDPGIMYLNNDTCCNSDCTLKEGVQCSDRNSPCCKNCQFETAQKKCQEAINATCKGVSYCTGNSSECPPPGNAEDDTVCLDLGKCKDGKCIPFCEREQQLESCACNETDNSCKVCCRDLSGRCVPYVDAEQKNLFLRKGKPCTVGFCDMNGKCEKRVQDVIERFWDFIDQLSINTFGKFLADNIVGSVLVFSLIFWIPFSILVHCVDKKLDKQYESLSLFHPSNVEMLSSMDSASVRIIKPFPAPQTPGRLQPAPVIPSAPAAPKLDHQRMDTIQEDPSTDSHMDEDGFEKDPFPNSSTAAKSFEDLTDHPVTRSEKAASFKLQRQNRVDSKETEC
# Nucleotide-binding oligomerization domain-containing protein 2, sequence (Q9HC29 whole entry, the tested form may be a part): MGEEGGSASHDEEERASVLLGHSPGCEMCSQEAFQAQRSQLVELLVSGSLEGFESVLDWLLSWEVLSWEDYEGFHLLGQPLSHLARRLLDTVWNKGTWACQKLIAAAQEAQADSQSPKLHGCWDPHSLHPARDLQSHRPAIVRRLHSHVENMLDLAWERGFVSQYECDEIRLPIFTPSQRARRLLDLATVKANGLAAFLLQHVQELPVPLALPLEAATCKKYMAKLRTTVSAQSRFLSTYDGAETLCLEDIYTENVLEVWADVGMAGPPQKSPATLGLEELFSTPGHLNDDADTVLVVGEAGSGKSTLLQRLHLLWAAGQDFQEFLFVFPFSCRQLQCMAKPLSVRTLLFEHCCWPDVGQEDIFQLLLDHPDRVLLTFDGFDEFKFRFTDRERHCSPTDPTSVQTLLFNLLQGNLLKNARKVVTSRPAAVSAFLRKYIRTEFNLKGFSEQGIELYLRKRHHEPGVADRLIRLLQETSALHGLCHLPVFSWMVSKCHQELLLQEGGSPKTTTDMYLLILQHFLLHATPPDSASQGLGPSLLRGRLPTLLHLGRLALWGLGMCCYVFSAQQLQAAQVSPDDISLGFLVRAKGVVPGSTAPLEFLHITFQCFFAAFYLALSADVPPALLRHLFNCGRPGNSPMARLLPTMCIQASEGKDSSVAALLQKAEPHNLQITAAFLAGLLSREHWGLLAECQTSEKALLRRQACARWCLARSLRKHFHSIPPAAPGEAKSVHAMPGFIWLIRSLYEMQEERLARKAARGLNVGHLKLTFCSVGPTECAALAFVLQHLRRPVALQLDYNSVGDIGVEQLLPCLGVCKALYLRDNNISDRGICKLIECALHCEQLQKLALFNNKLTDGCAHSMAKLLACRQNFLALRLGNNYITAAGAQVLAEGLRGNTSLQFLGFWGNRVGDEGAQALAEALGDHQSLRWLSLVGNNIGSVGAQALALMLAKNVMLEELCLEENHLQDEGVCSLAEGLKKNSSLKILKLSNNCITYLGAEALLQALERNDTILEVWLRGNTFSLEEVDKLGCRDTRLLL
# Luciferin 4-monooxygenase, sequence (Q27757 whole entry): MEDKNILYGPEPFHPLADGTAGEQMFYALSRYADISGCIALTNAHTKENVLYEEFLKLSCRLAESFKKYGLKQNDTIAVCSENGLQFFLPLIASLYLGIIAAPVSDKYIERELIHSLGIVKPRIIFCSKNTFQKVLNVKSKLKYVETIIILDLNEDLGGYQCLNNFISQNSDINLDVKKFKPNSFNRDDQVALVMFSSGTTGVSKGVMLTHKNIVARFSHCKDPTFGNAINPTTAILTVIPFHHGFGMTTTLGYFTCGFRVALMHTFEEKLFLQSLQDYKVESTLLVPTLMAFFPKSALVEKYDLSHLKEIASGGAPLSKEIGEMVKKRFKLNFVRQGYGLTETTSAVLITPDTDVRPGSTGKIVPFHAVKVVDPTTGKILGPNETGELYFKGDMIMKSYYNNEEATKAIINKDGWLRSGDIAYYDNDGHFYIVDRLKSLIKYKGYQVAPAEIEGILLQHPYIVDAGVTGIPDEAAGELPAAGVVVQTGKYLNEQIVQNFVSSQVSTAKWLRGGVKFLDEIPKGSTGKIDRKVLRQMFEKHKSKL
# DNA topoisomerase, sequence (A0A2S9PM60 whole entry, the tested form may be a part): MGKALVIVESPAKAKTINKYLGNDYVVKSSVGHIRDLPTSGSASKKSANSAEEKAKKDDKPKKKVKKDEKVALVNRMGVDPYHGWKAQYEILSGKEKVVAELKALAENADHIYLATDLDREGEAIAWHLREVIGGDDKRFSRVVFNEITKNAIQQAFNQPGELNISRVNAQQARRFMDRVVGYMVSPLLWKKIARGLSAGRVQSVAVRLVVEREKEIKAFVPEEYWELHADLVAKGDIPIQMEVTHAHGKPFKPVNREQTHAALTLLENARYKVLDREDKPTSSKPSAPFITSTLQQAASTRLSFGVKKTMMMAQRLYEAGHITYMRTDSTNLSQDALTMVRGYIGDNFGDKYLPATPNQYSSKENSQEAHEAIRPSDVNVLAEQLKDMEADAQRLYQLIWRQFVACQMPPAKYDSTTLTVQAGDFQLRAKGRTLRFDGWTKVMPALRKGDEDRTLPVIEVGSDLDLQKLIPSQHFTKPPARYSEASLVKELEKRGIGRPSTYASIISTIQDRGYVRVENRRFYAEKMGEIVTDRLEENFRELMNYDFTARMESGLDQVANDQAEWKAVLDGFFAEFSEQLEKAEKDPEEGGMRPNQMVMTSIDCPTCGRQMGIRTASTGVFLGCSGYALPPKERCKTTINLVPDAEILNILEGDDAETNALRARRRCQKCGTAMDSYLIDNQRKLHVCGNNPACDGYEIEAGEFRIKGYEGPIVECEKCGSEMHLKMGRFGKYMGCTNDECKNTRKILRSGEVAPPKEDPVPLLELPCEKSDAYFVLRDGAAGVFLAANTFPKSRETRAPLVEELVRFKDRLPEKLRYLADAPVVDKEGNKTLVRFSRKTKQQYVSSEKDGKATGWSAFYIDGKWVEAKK
structure (smiles),measurement,setting,value
Cc1cccc(-n2ncc3c(N(C)C4CCCCC4)ncnc32)c1,IC50,HEK293 [1],> 20 µM (inactive)
same,IC50,HEK293 [2],0.783 µM (active)
same,IC50,HEK293 [3],> 20 µM (inactive)
same,AC50,[4],0.0758 µM (active)
same,EC50,[5],< 0.16 µM (active)
same,AC50,[6],6.99 µM (active)
same,EC50,HEK293 [7],9.93 µM (active)
same,AC50,[8],40.2 µM (active)
same,IC50,HEK293 [9],6.81 µM (active)
same,AC50,[10],0.121 µM (active)
same,EC50,[11],< 0.31 µM (inactive)
COc1cccc(NC(=O)CCc2nc(-c3ccc(C(C)(C)C)cc3)no2)c1,IC50,HEK293 [12],0.24 µM (active)
same,IC50,HEK293 [13],> 80 µM (inactive)
same,IC50,Jurkat,0.242 µM (active)
CN(C)CCNc1ccc2nnn3c4ccc(O)cc4c(=O)c1c23,IC50,[14],62.6 µM (active)
same,CC50,[15],56.5 µM (active)
same,AC50,[16],4.73 µM (active)
same,AC50,A-375,46 µM (active)
O=c1c2ccccc2nc(/C=C/c2ccccn2)n1-c1ccccc1,IC50,Hexokinase HKDC1,> 80 µM (inactive)
same,IC50,Hexokinase-1,> 80 µM (inactive)
Cc1cc(C)c2c(=O)n3c(nc2c1)C(Cc1ccc(O)cc1)NC(=O)c1cc2ccccc2cc1-3 (stereo not drawn),IC50,[17],> 69.5 µM (inactive)
same,AC50,DNA topoisomerase,9.07 µM (active)
same,IC50,[18],> 69.5 µM (inactive)
